Measured values as given in patent US3997527A, “Aminomethylarylmethylpenicillin derivatives” (Pfizer Inc., priority 1976, dated 1976).
Converted amounts (≈) assume the structure as drawn.

How the values were obtained:
Type in all cases: cell-based
S. aureus 01A005 = assay: In vitro antibacterial activity (MIC), S. aureus 01A005; conditions: Staphylococcus aureus, nutrient broth
Source text: (§1) As has been previously mentioned, the penicillins of the present invention are broad spectrum antibiotics which are, unlike many penicillin analogs, highly antagonistic toward gram-negative microorganisms, in particular E. coli and Klebsiella. This unusual activity against certain gram-negative organisms may be attributed to the positioning of the aminomethyl substituent adjacent to the linking amide moiety. The marked effectiveness of this positioning can be readily seen in an antibacterial comparison of 6-(o-aminomethylphenylacetamido)penicillanic acid (o-AMP), a preferred compound of the present invention and 6-(p-aminomethylphenylacetamido)penicillanic acid (p-AMP), a compound of the previously-mentioned British Pat. 1,057,029.

E. coli 51A002 = assay: In vitro antibacterial activity (MIC), E. coli 51A002; conditions: Escherichia coli, nutrient broth
Source text: as §1

S. aureus 01A052 = assay: In vitro antibacterial activity (MIC), S. aureus 01A052; conditions: Staphylococcus aureus, nutrient broth
Source text: as §1

Entero. aero. 55A004 = assay: In vitro antibacterial activity (MIC), Entero. aero. 55A004; conditions: nutrient broth
Source text: as §1

E. coli 51A266 = assay: In vitro antibacterial activity (MIC), E. coli 51A266; conditions: Escherichia coli, nutrient broth
Source text: as §1

S. pyogenes 020803 = assay: In vitro antibacterial activity (MIC), S. pyogenes 020803; conditions: Streptococcus pyogenes, nutrient broth
Source text: as §1

Past. mult. 59A001 = assay: In vitro antibacterial activity (MIC), Past. mult. 59A001; conditions: nutrient broth
Source text: as §1

Kleb. pneumoniae 53A009 = assay: In vitro antibacterial activity (MIC), Kleb. pneumoniae 53A009; conditions: Klebsiella pneumoniae, nutrient broth
Source text: as §1

E. coli 51A215 = assay: In vitro antibacterial activity (MIC), E. coli 51A215; conditions: Escherichia coli, nutrient broth
Source text: as §1

Salm. typhm. 530013 = assay: In vitro antibacterial activity (MIC), Salm. typhm. 530013; conditions: nutrient broth
Source text: as §1

Row | MIC (S. aureus 01A005) [µg/mL] | MIC (E. coli 51A002) [µg/mL] | MIC (S. aureus 01A052) [µg/mL] | MIC (Entero. aero. 55A004) [µg/mL] | MIC (E. coli 51A266) [µg/mL] | MIC (S. pyogenes 020803) [µg/mL] | MIC (Past. mult. 59A001) [µg/mL] | MIC (Kleb. pneumoniae 53A009) [µg/mL] | MIC (E. coli 51A215) [µg/mL] | MIC (Salm. typhm. 530013) [µg/mL] | SMILES
1 | 0.2 (≈ 0.55 µM) | 200 (≈ 550 µM) | 1.56 (≈ 4.29 µM) | 1.56 (≈ 4.29 µM) | 3.12 (≈ 8.58 µM) | < 0.1 | 0.2 (≈ 0.55 µM) | 3.12 (≈ 8.58 µM) | 6.25 (≈ 17.2 µM) | 3.12 (≈ 8.58 µM) | CC1(C)S[C@@H]2C(NC(=O)Cc3ccccc3CN)C(=O)N2[C@H]1C(=O)O (some centres unmarked) [o-AMP, 6-(o-aminomethylphenylacetamido)penicillanic acid]
2 | 200 (≈ 550 µM) | > 200 | 200 (≈ 550 µM) | > 200 | 50 (≈ 138 µM) | 0.39 (≈ 1.07 µM) | 0.39 (≈ 1.07 µM) | 50 (≈ 138 µM) | 6.25 (≈ 17.2 µM) | 12.5 (≈ 34.4 µM) | CC1(C)S[C@@H]2C(NC(=O)Cc3ccc(CN)cc3)C(=O)N2[C@H]1C(=O)O (some centres unmarked) [p-AMP, 6-(p-aminomethylphenylacetamido)penicillanic acid]
